From patent US12509474B2, “Inhibitors of complement factors and uses thereof” (Annexon, Inc., priority 2020, dated 2025)
Counter-ions that a name gives are not always drawn.

target: T1, human C1s protein (Homo sapiens, UniProt P09871); test: C1s enzymatic assay (hydrolysis of YLGR-Rh110-dPro); assay type: biochemical; conditions: substrate YLGR-Rh110-dPro 20 μM, 15 min pre-incubation, 60 min RT, fluorescence, read-out: hC1s pIC50 (converted)
T1 construct: A104
T1 sequence (P09871 16-688): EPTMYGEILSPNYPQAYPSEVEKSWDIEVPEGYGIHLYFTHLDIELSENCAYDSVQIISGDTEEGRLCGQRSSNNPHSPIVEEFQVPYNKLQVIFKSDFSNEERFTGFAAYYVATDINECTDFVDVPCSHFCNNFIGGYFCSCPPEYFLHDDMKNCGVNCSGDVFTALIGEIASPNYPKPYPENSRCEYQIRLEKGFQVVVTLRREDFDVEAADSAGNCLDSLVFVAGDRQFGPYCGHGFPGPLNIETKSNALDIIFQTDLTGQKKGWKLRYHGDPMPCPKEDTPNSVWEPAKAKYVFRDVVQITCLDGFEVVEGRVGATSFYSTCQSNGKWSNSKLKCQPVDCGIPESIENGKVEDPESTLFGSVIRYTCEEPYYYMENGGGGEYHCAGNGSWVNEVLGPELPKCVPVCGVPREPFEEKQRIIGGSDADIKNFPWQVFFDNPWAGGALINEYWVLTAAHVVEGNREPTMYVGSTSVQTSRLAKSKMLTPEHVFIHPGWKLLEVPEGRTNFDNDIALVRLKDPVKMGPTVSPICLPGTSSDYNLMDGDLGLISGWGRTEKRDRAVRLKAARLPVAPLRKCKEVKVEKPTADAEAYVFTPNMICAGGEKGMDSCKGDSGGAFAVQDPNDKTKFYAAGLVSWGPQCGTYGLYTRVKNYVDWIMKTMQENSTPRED
Protocol: Compound Testing in the C1s Enzymatic Assay
The enzyme cleaves the substrate with the release of Rh110 which is highly fluorescent. C1s inhibitors prevent the hydrolysis of the substrate thus resulting in a decrease of the signal.
On the day of the experiment 0.1 mg/mL BSA (Sigma, B4287) is added fresh to the buffer. The test item stock solutions are serially diluted 1:3 or 1:4 or 1:5 with DMSO, 11-point curves, in a 384-well compound plate. Nafamostat concentration curve is always included in the assay plate as a reference control.
The high controls are prepared dispensing in 0.25 μL DMSO in column 23, rows AH or AP and low controls with 0.25 μL of 0.1 M Nafamostat. […] The YLGR-Rh110-dPro substrate is prepared as 2× of the final assay concentration of 20 μM. 1/well of 2× enzyme solution is dispensed and pre-incubated for 15 min with the compounds. The enzymatic reaction is then started with 5 μL/well of the 2× substrate solution.

Question: With `Cn1nc(C2CC2)c2c(B(O)O)cc(-c3ccc4c(N)cnnc4c3)cc21` [Example 146, [6-(4-aminocinnolin-7-yl)-3-cyclopropyl-1-methyl-1H-indazol-4-yl]boronic Acid] as the compound, how does the IC50 read?
Answer: 5.25 nM

Question: With `COc1cc(OC(F)(F)F)c(B(O)O)cc1-c1ccc2c(N)nnc(C)c2c1` [Example 44, [5-(1-amino-4-methylphthalazin-6-yl)-4-methoxy-2-(trifluoromethoxy)phenyl]boronic Acid] as the compound, how does the IC50 read?
Answer: 0.813 nM

Question: How did the IC50 turn out when `COCCOCCOCCOCCOCCOCCOc1ccc(B(O)O)cc1-c1ccc2c(N)cnnc2c1` [Example 8, [3-(4-aminocinnolin-7-yl)-4-[2-[2-[2-[2-[2-(2-methoxyethoxy)ethoxy]ethoxy]ethoxy]ethoxy]ethoxy]phenyl]boronic Acid] was run?
Answer: 3.09 nM

Question: Which IC50 does the source give for `Cc1nnc(N)c2ccc(-c3cc(B(O)O)ccc3C#N)cc12` [Example 29, [3-(1-amino-4-methylphthalazin-6-yl)-4-cyanophenyl]boronic Acid] here?
Answer: 1.91 nM

Question: `COc1ccc(B(O)O)cc1-c1ccc2c(N)cnnc2c1` [Example 5, [3-(4-aminocinnolin-7-yl)-4-methoxyphenyl]boronic Acid] was tested. Which IC50 did it give?
Answer: 0.589 nM

Question: `COc1c(C)cc(-c2ccc3c(N)nnc(C)c3c2)cc1B(O)O` [Example 45, [5-(1-amino-4-methylphthalazin-6-yl)-2-methoxy-3-methylphenyl]boronic Acid] was tested. Which IC50 did it give?
Answer: 0.562 nM

Question: How did the IC50 turn out when `COCCOCCOc1ccc(B(O)O)cc1-c1ccc2c(N)cnnc2c1` [Example 107, [3-(4-aminocinnolin-7-yl)-4-[2-(2-methoxyethoxy)ethoxy]phenyl]boronic Acid] was run?
Answer: 1 nM

Question: Which IC50 does the source give for `COc1ccc(B(O)O)cc1-c1cnc2c(N)cnnc2c1` [Example 144, (3-{4-aminopyrido[3,2-C]pyridazin-7-yl}-4-methoxyphenyl)boronic Acid] here?
Answer: 66.1 nM

Question: How did the IC50 turn out when `Nc1cnnc2cc(-c3cc(B(O)O)ccc3OCC3CNC(=O)C3)ccc12` (single isomer, unassigned) [Example 154, [3-(4-aminocinnolin-7-yl)-4-[(5-oxopyrrolidin-3-yl)methoxy]phenyl]boronic Acid] was run?
Answer: 1.78 nM

Question: With `Cc1nnc(N)c2ccc(-c3cc(B(O)O)cc(P(C)(C)=O)c3)cc12` [Example 40, [3-(1-amino-4-methylphthalazin-6-yl)-5-dimethylphosphorylphenyl]boronic Acid Formic Acid Salt] as the compound, how does the IC50 read?
Answer: 1.02 nM

Question: With `Nc1cnnc2cc(-c3cc(B(O)O)ccc3OCCC3CC3)ccc12` [Example 115, [3-(4-aminocinnolin-7-yl)-4-(2-cyclopropylethoxy)phenyl]boronic Acid] as the compound, how does the IC50 read?
Answer: 0.794 nM

Question: `COc1ccc(B(O)O)cc1-c1ccc2nccc(N)c2c1` [Example 129, [3-(4-aminoquinolin-6-yl)-4-methoxyphenyl]boronic Acid Formic Acid Salt] was tested. Which IC50 did it give?
Answer: 6920 nM

Question: Which IC50 does the source give for `COc1ccc(B(O)O)cc1-c1cnc2cnccc2c1` [Example 139, [4-methoxy-3-(1,7-naphthyridin-3-yl)phenyl]boronic Acid] here?
Answer: > 25100 nM

Question: `CC(C)c1nnc(N)c2ccc(-c3cccc(B(O)O)c3)cc12` [Example 9, [3-(1-amino-4-propan-2-ylphthalazin-6-yl)phenyl]boronic Acid Hydrochloric Acid Salt] was tested. Which IC50 did it give?
Answer: 513 nM

Question: For `CC(C)NC(=O)c1ccc(B(O)O)cc1-c1ccc2c(N)cnnc2c1` [Example 120, [3-(4-aminocinnolin-7-yl)-4-(propan-2-ylcarbamoyl)phenyl]boronic Acid Formic Acid Salt], which IC50 is on record?
Answer: 11.2 nM

Question: Which IC50 does the source give for `Nc1cnnc2cc(-c3cc(B(O)O)cc4c3OCCC4)ccc12` [Example 145, [8-(4-aminocinnolin-7-yl)-3,4-dihydro-2H-chromen-6-yl]boronic Acid Formic Acid Salt] here?
Answer: 3.09 nM

Question: With `COc1cc(C2CC2)c(B(O)O)cc1-c1ccc2c(N)nnc(C)c2c1` [Example 43, [5-(1-amino-4-methylphthalazin-6-yl)-2-cyclopropyl-4-methoxyphenyl]boronic Acid] as the compound, how does the IC50 read?
Answer: 1 nM

Question: Which IC50 does the source give for `Nc1cnnc2cc(-c3cc(B(O)O)ccc3OC3CCC(=O)NC3)ccc12` (stereo not shown) [Example 126, [3-(4-aminocinnolin-7-yl)-4-[(6-oxopiperidin-3-yl)oxy]phenyl]boronic Acid] here?
Answer: 6.03 nM

Question: With `Cc1nnc(N)c2ccc(-c3cc(B(O)O)cc(F)c3C#N)cc12` [Example 36, [3-(1-amino-4-methylphthalazin-6-yl)-4-cyano-5-fluorophenyl]boronic Acid Formic Acid Salt] as the compound, how does the IC50 read?
Answer: 1.91 nM

Question: With `Nc1cnnc2cc(-c3cc(B(O)O)ccc3Oc3nccs3)ccc12` [Example 169, [3-(4-aminocinnolin-7-yl)-4-(1,3-thiazol-2-yloxy)phenyl]boronic Acid Formic Acid Salt] as the compound, how does the IC50 read?
Answer: 1.45 nM

Question: Which IC50 does the source give for `COc1ccc(B(O)O)cc1-c1ccc2c(O)cnnc2c1` [Example 158, [3-(4-hydroxycinnolin-7-yl)-4-methoxyphenyl]boronic Acid] here?
Answer: > 25100 nM

Question: How did the IC50 turn out when `COc1ccc(B(O)O)cc1-c1ccc2c(O)nncc2c1` [Example 160, [3-(1-hydroxyphthalazin-6-yl)-4-methoxyphenyl]boronic Acid] was run?
Answer: > 25100 nM

Question: For `COCc1cc(OC)c(-c2ccc3c(N)cnnc3c2)cc1B(O)O` [Example 137, [5-(4-aminocinnolin-7-yl)-4-methoxy-2-(methoxymethyl)phenyl]boronic Acid Formic Acid Salt], which IC50 is on record?
Answer: 2.82 nM

Question: With `Cc1cc(C#N)c(-c2ccc3c(N)nnc(C)c3c2)cc1B(O)O` [Example 41, [5-(1-amino-4-methylphthalazin-6-yl)-4-cyano-2-methylphenyl]boronic Acid] as the compound, how does the IC50 read?
Answer: 1.2 nM

Question: Which IC50 does the source give for `Cc1nnc(N)c2ccc(-c3ccc(NC(=O)c4ccccc4Cl)c(B(O)O)c3)cc12` [Example 93, [5-(1-amino-4-methylphthalazin-6-yl)-2-[(2-chlorobenzoyl)amino]phenyl]boronic Acid] here?
Answer: 1 nM

Question: For `Nc1cnnc2cc(-c3cc(B(O)O)ccc3C(=O)N3CCCC3)ccc12` [Example 124, [3-(4-aminocinnolin-7-yl)-4-(pyrrolidine-1-carbonyl)phenyl]boronic Acid], which IC50 is on record?
Answer: 7.59 nM

Question: `Cc1nnc(N)c2ccc(-c3cc(B(O)O)ccc3NC(=O)C3CC(F)(F)CN3)cc12` (stereo in doubt) [Example 81, [3-(1-amino-4-methylphthalazin-6-yl)-4-[[(2S)-4,4-difluoropyrrolidine-2-carbonyl]amino]phenyl]boronic Acid] was tested. Which IC50 did it give?
Answer: 4.57 nM

Question: For `Nc1cnnc2cc(-c3cc(B(O)O)cc4c3OCC4)ccc12` [Example 138, [7-(4-aminocinnolin-7-yl)-2,3-dihydro-1-benzofuran-5-yl]boronic Acid Formic Acid Salt], which IC50 is on record?
Answer: 1.62 nM

Question: `Nc1nncc2cc(-c3cc(B(O)O)ccc3NC(=O)c3ccccc3Cl)ccc12` [Example 18, [3-(1-aminophthalazin-6-yl)-4-[(2-chlorobenzoyl)amino]phenyl]boronic Acid Formic Acid Salt] was tested. Which IC50 did it give?
Answer: 5.5 nM

Question: With `Nc1cnnc2cc(-c3cc(B(O)O)cc4ccoc34)ccc12` [Example 100, [7-(4-aminocinnolin-7-yl)-1-benzofuran-5-yl]boronic Acid] as the compound, how does the IC50 read?
Answer: 0.776 nM

Question: With `Nc1cnnc2cc(-c3cc(B(O)O)ccc3OCc3cnsc3)ccc12` [Example 98, [3-(4-aminocinnolin-7-yl)-4-[(1,2-thiazol-4-yl)methoxy]phenyl]boronic Acid] as the compound, how does the IC50 read?
Answer: 0.871 nM

Question: With `COc1ccc(B(O)O)cc1-c1ccc2c(N)ccnc2c1` [Example 109, [3-(4-aminoquinolin-7-yl)-4-methoxyphenyl]boronic Acid] as the compound, how does the IC50 read?
Answer: 871 nM

Question: `Cc1nnc(N)c2ccc(-c3cc(B(O)O)ccc3NC(=O)c3cnsc3)cc12` [Example 87, [3-(1-amino-4-methylphthalazin-6-yl)-4-(1,2-thiazole-4-amido)phenyl]boronic Acid] was tested. Which IC50 did it give?
Answer: 11200 nM

Question: Which IC50 does the source give for `COc1ccc(B(O)O)cc1-c1cnc2c(N)nccc2c1` [Example 130, [3-(8-amino-1,7-naphthyridin-3-yl)-4-methoxyphenyl]boronic Acid Formic Acid Salt] here?
Answer: 67.6 nM

Question: With `COc1cc(C(F)(F)F)c(B(O)O)cc1-c1ccc2c(N)nnc(C)c2c1` [Example 37, [5-(1-amino-4-methylphthalazin-6-yl)-4-methoxy-2-(trifluoromethyl)phenyl]boronic Acid Formic Acid Salt] as the compound, how does the IC50 read?
Answer: 1.58 nM

Question: With `Cc1nnc(N)c2ccc(-c3cccc(B(O)O)c3)cc12` [Example 4, [3-(1-amino-4-methylphthalazin-6-yl)phenyl]boronic Acid] as the compound, how does the IC50 read?
Answer: 1.51 nM

Question: How did the IC50 turn out when `Nc1cnnc2cc(-c3cc(B(O)O)ccc3N3CCCC3)ccc12` [Example 150, [3-(4-aminocinnolin-7-yl)-4-(pyrrolidin-1-yl)phenyl]boronic Acid Formic Acid Salt] was run?
Answer: 50.1 nM
